In patent publication US11891374B2, “Derivatized benzimidazole compounds, their salts, their complexes, their pharmaceutical compositions and methods for using them for antigeriatric actions” (priority 2020, dated 2024):

Tests used:
[1] = tested on: imidazoline receptors of all subtypes; details: cited from earlier work
Drosophila fruit flies = details: in vivo

| SMILES | concentration range of binding to imidazoline receptors [1] [mM] | MLS (day) Females (Drosophila fruit flies) [days] | MLS (day) Males (Drosophila fruit flies) [days] | extension of lifespan / MLS versus control (Drosophila fruit flies) [fold] | lifespan of Drosophila extended to (Drosophila fruit flies) [days] |
| --- | --- | --- | --- | --- | --- |
| N=C(N)NCCCCN [Agmatine, N-(4-aminobutyl)guanidine] | 0.5 to 5 | – | – | – | – |
| Cc1cc(C)c2c(c1)nc(Cn1c3ccccc3c(=O)c3ccccc31)n2C [XVg] | – | 67 ± 9 | 66 ± 9 | ~3 | 70 |
